Experimental data as given in patent publication US20070128217A1 (priority 2003, published 2007).

Experiments:
[1] = system: antibodies in sera from SARS patients (sera 1a, 1b, 2, 6, 37, 62, London, SARS-yellow, SARS-green); format: binding, human; design: Binding of serum 6 to linear peptides of protein X1 of SARS-CoV Urbani / Binding of serum 37 to linear peptides of protein X1 of SARS-CoV Urbani / Binding of serum 6 to looped/cyclic peptide (PEPSCAN-ELISA) / Binding of serum 37 to looped/cyclic peptide (PEPSCAN-ELISA) / Binding of serum 37 to looped/cyclic peptides of protein X1 of SARS-CoV Urbani / Binding of serum 6 to linear peptides of protein X2 / Binding of serum 37 to linear peptides of protein X2 / Binding of serum 37 to looped/cyclic peptides of protein X2 of SARS-CoV Urbani / Binding of serum 6 to linear peptides of protein M of SARS-CoV Urbani / Binding of serum 37 to linear peptides of protein M of SARS-CoV Urbani / Binding of serum 6 to looped/cyclic peptides of protein M of SARS-CoV Urbani / Binding of serum 37 to looped/cyclic peptides of protein M of SARS-CoV Urbani / Binding of serum 6 to linear peptides of protein X3 of SARS-CoV Urbani / Binding of serum 37 to linear peptides of protein X3 of SARS-CoV Urbani / Binding of serum 37 to looped/cyclic peptides of protein X3 of SARS-CoV Urbani / Binding of serum 6 to linear peptides of protein X4 of SARS-CoV Urbani / Binding of serum 37 to linear peptides of protein X4 of SARS-CoV Urbani / Binding of serum 37 to looped/cyclic peptides of protein X4 of SARS-CoV Urbani / Binding of serum 6 to linear peptides of protein X5 of SARS-CoV Urbani / Binding of serum 37 to linear peptides of protein X5 of SARS-CoV Urbani / Binding of serum 37 to looped/cyclic peptides of protein X5 of SARS-CoV Urbani / Binding of serum 6 to linear peptides of protein N of SARS-CoV Urbani / Binding of serum 37 to linear peptides of protein N of SARS-CoV Urbani / Binding of serum 6 to linear peptide (PEPSCAN-ELISA) / Binding of serum 1a to looped/cyclic peptides of protein N of SARS-CoV Urbani / Binding of serum 1b to looped/cyclic peptides of protein N of SARS-CoV Urbani / Binding of serum 2 to looped/cyclic peptides of protein N of SARS-CoV Urbani / Binding of serum 6 to looped/cyclic peptides of protein N of SARS-CoV Urbani / Binding of serum 37 to looped/cyclic peptides of protein N of SARS-CoV Urbani / Binding of serum 62 to looped/cyclic peptides of protein N of SARS-CoV Urbani / Binding of serum London to looped/cyclic peptides of protein N of SARS-CoV Urbani / Binding of serum SARS-green to looped/cyclic peptides of protein N of SARS-CoV Urbani: unit not given here
[2] = system: control sera (pooled serum of ten healthy LUMC hospital workers; commercial negative donor pooled serum from the Dutch bloodbank); format: binding, human; design: Binding of Control serum LUMC to linear peptides / Binding of Control serum Blood-bank to linear peptides / Binding of Control serum LUMC to looped peptides / Binding of Control Serum Blood-Bank to Looped peptides / Binding of Control serum LUMC to linear peptides of the protein M of SARS-CoV Urbani / Binding of Control serum Blood-bank to linear peptides of the protein M of SARS-CoV Urbani / Binding of Control serum LUMC to looped peptides of the protein M of SARS-CoV Urbani / Binding of Control Serum Blood-Bank to Looped peptides of the protein M of SARS-CoV Urbani: unit not given here
[3] = system: rabbit serum obtained by immunizing a rabbit with the SARS-CoV strain Frankfurt 1; format: binding; design: Binding of a rabbit serum to linear peptides / Binding of a rabbit serum to looped peptides / Rabbit serum linear peptides / Rabbit serum looped peptides / Binding of a rabbit serum to linear peptides of protein N of SARS-CoV Urbani (Rabbit serum linear peptides) / Binding of a rabbit serum to looped/cyclic peptides of protein N of SARS-CoV Urbani (Rabbit serum looped peptides): unit not given here

**Q.** With TVYHITVSQIQLSLL as the sequence, how does the “Binding of serum 1a to linear peptides of protein X2” value [1] read?
**A.** 0.6

**Q.** What about the “Binding of serum 1a to looped/cyclic peptides of protein X2 of SARS-CoV Urbani” value [1] of the same sequence?
**A.** 0.4

**Q.** And the “Binding of serum 1b to linear peptides of protein X2” value [1]?
**A.** 0.5

**Q.** And the “Binding of serum 1b to looped/cyclic peptides of protein X2 of SARS-CoV Urbani” value [1]?
**A.** 0.4

**Q.** What about the “Binding of serum 2 to linear peptides of protein X2” value [1] of the same sequence?
**A.** 0.5

**Q.** And the “Binding of serum 2 to looped/cyclic peptides of protein X2 of SARS-CoV Urbani” value [1]?
**A.** 0.3

**Q.** And the “Binding of serum 6 to linear peptides of protein X2” value [1]?
**A.** 0.4

**Q.** What about the “Binding of serum 6 to looped/cyclic peptides of protein X2 of SARS-CoV Urbani” value [1] of the same sequence?
**A.** 0.2

**Q.** And the “Binding of serum 37 to linear peptides of protein X2” value [1]?
**A.** 0.6

**Q.** What about the “Binding of serum 37 to looped/cyclic peptides of protein X2 of SARS-CoV Urbani” value [1] of the same sequence?
**A.** 0.4

**Q.** What about the “Binding of serum 62 to linear peptides of protein X2” value [1] of the same sequence?
**A.** 0.4

**Q.** What about the “Binding of serum 62 to looped/cyclic peptides of protein X2 of SARS-CoV Urbani” value [1] of the same sequence?
**A.** 0.5

**Q.** What about the “Binding of serum London to linear peptides of protein X2” value [1] of the same sequence?
**A.** 0.4

**Q.** And the “Binding of serum London to looped/cyclic peptides of protein X2 of SARS-CoV Urbani” value [1]?
**A.** 0.2

**Q.** What about the “Binding of serum SARS-green to linear peptides of protein X2” value [1] of the same sequence?
**A.** 0.1

**Q.** What about the “Binding of serum SARS-green to looped/cyclic peptides of protein X2 of SARS-CoV Urbani” value [1] of the same sequence?
**A.** 0.2

**Q.** And the “Binding of serum SARS-yellow to linear peptides of protein X2” value [1]?
**A.** 0.7

**Q.** What about the “Binding of serum SARS-yellow to looped/cyclic peptides of protein X2 of SARS-CoV Urbani” value [1] of the same sequence?
**A.** 0.3

**Q.** And the “Binding of Control Serum Blood-Bank to Looped peptides” value [2]?
**A.** 0.6

**Q.** And the “Binding of Control serum Blood-bank to linear peptides” value [2]?
**A.** 0.5

**Q.** And the “Binding of Control serum LUMC to linear peptides” value [2]?
**A.** 0.5

**Q.** What about the “Binding of Control serum LUMC to looped peptides” value [2] of the same sequence?
**A.** 0.5

**Q.** And the “Binding of a rabbit serum to linear peptides” value [3]?
**A.** 0.7

**Q.** And the “Binding of a rabbit serum to looped peptides” value [3]?
**A.** 0.3

**Q.** With VPLRGTIVTRPLMES as the sequence, how does the “Binding of serum 1a to linear peptides of protein M of SARS-CoV Urbani” value [1] read?
**A.** 0.7

**Q.** What about the “Binding of serum 1b to linear peptides of protein M of SARS-CoV Urbani” value [1] of the same sequence?
**A.** 0.6

**Q.** And the “Binding of serum 2 to linear peptides of protein M of SARS-CoV Urbani” value [1]?
**A.** 0.7

**Q.** And the “Binding of serum 6 to linear peptides of protein M of SARS-CoV Urbani” value [1]?
**A.** 0.4

**Q.** And the “Binding of serum 37 to linear peptides of protein M of SARS-CoV Urbani” value [1]?
**A.** 0.6

**Q.** What about the “Binding of serum 62 to linear peptides of protein M of SARS-CoV Urbani” value [1] of the same sequence?
**A.** 0.5

**Q.** And the “Binding of serum London to linear peptides of protein M of SARS-CoV Urbani” value [1]?
**A.** 0.4

**Q.** And the “Binding of serum SARS-green to linear peptides of protein M of SARS-CoV Urbani” value [1]?
**A.** 0.5

**Q.** And the “Binding of serum SARS-yellow to linear peptides of protein M of SARS-CoV Urbani” value [1]?
**A.** 0.4

**Q.** And the “Recognition of the peptide by sera of SARS-CoV infected individuals, and form (linear, looped/cyclic) in which it is recognized” value [1]?
**A.** recognized in looped/cyclic form

**Q.** And the “Binding of Control Serum Blood-Bank to Looped peptides of the protein M of SARS-CoV Urbani” value [2]?
**A.** 0.6

**Q.** What about the “Binding of Control serum Blood-bank to linear peptides of the protein M of SARS-CoV Urbani” value [2] of the same sequence?
**A.** 0.9

**Q.** And the “Binding of Control serum LUMC to linear peptides of the protein M of SARS-CoV Urbani” value [2]?
**A.** 0.6

**Q.** And the “Binding of Control serum LUMC to looped peptides of the protein M of SARS-CoV Urbani” value [2]?
**A.** 0.7

**Q.** And the “Rabbit serum linear peptides” value [3]?
**A.** 0.1

**Q.** What about the “Rabbit serum looped peptides” value [3] of the same sequence?
**A.** 0.6

**Q.** With LWLLWPVTLACFVLA as the sequence, how does the “Binding of serum 1a to linear peptides of protein M of SARS-CoV Urbani” value [1] read?
**A.** 0.7

**Q.** What about the “Binding of serum 1a to looped/cyclic peptides of protein M of SARS-CoV Urbani” value [1] of the same sequence?
**A.** 0.7

**Q.** And the “Binding of serum 1b to linear peptides of protein M of SARS-CoV Urbani” value [1]?
**A.** 0.6

**Q.** And the “Binding of serum 1b to looped/cyclic peptides of protein M of SARS-CoV Urbani” value [1]?
**A.** 0.4

**Q.** What about the “Binding of serum 2 to linear peptides of protein M of SARS-CoV Urbani” value [1] of the same sequence?
**A.** 0.4

**Q.** And the “Binding of serum 2 to looped/cyclic peptides of protein M of SARS-CoV Urbani” value [1]?
**A.** 0.6

**Q.** And the “Binding of serum 6 to linear peptides of protein M of SARS-CoV Urbani” value [1]?
**A.** 0.5

**Q.** And the “Binding of serum 6 to looped/cyclic peptides of protein M of SARS-CoV Urbani” value [1]?
**A.** 0.5

**Q.** And the “Binding of serum 37 to linear peptides of protein M of SARS-CoV Urbani” value [1]?
**A.** 0.4

**Q.** And the “Binding of serum 37 to looped/cyclic peptides of protein M of SARS-CoV Urbani” value [1]?
**A.** 0.7

**Q.** What about the “Binding of serum 62 to linear peptides of protein M of SARS-CoV Urbani” value [1] of the same sequence?
**A.** 0.4

**Q.** And the “Binding of serum 62 to looped/cyclic peptides of protein M of SARS-CoV Urbani” value [1]?
**A.** 0.6

**Q.** What about the “Binding of serum London to linear peptides of protein M of SARS-CoV Urbani” value [1] of the same sequence?
**A.** 0.4

**Q.** And the “Binding of serum London to looped/cyclic peptides of protein M of SARS-CoV Urbani” value [1]?
**A.** 0.2

**Q.** What about the “Binding of serum SARS-green to linear peptides of protein M of SARS-CoV Urbani” value [1] of the same sequence?
**A.** 0.4

**Q.** What about the “Binding of serum SARS-green to looped/cyclic peptides of protein M of SARS-CoV Urbani” value [1] of the same sequence?
**A.** 0.2

**Q.** What about the “Binding of serum SARS-yellow to linear peptides of protein M of SARS-CoV Urbani” value [1] of the same sequence?
**A.** 0.2

**Q.** What about the “Binding of serum SARS-yellow to looped/cyclic peptides of protein M of SARS-CoV Urbani” value [1] of the same sequence?
**A.** 0.6

**Q.** And the “Binding of Control Serum Blood-Bank to Looped peptides of the protein M of SARS-CoV Urbani” value [2]?
**A.** 0.5

**Q.** And the “Binding of Control serum Blood-bank to linear peptides of the protein M of SARS-CoV Urbani” value [2]?
**A.** 0.5

**Q.** What about the “Binding of Control serum LUMC to linear peptides of the protein M of SARS-CoV Urbani” value [2] of the same sequence?
**A.** 0.5

**Q.** And the “Binding of Control serum LUMC to looped peptides of the protein M of SARS-CoV Urbani” value [2]?
**A.** 0.6

**Q.** What about the “Rabbit serum linear peptides” value [3] of the same sequence?
**A.** 0.1

**Q.** And the “Rabbit serum looped peptides” value [3]?
**A.** 0.4
